# In publication PMC8333062, “Chemical tools for epichaperome-mediated interactome dysfunctions of the central nervous system” (Nature Communications, 2021):
# Assays:
# [1] = PET biodistribution in human patients; type: in vivo; conditions: mean n=3
# From the text: To evaluate the brain permeability of PU-HZ151 into the human brain, we produced the [^124I]-labeled derivative and performed serial PET imaging studies of human patients (n = 3; NCT03371420), and derived time-activity (i.e. standard uptake values (SUV) versus time post-administration) curves for the brain and various other tissues (Fig. 2b). PET data obtained for [^124I]-labeled PU-H71 (NCT01269593 and ref. [39]) were used for comparison. […] The AUC values recorded for [^124I]-PU-HZ151 in the human brain post-single injection are at par with what was measured in the human muscle and lung, supportive of uptake of PU-HZ151 into the human brain (Fig. 2b). Magnetic resonance imaging (MRI), by offering structural and soft tissue resolution, confirmed the presence of PU-HZ151 in the brain tissue (Fig. 2d). […] The secondary outcome of the trial was to measure adverse events following administration of the probe. Safety of [^124I]-PU-HZ151 in human subjects was assessed by evaluation of the incidence, nature, and severity of adverse events and serious adverse events (Supplementary Note 2).
# [^124I]-PU-HZ151 and [^124I]-PU-H71 were synthesized in-house by the institutional cyclotron core facility at high specific activity. Analyses of the epichaperome by positron emission tomography (PET-CT) were performed as previously reported. In brief, research PET-CT was performed using an integrated PET-CT scanner (Discovery DSTE, GE Healthcare). CT scans for attenuation correction and anatomic coregistration were performed before tracer injection. Patients received 5 mCi of [^124I]-PU-HZ151 or [^124I]-PU-H71 by peripheral vein over 2 min. PET data were reconstructed using a standard ordered subset expected maximization iterative algorithm. Emission data were corrected for scatter, attenuation, and decay. PET scans were performed 0.5, 3, and 24 h after tracer administration. Numbers in the scale bar indicate upper and lower standardized uptake value (SUV) thresholds that define pixel intensity on PET images. SUV is a pixel value, derived from PET measurements of in vivo radioactivity, quantified as the fraction of the radioactive dose injected found in a cubic centimeter of measured tissue multiplied (ie, normalized) by patient body weight (grams). Maximum Intensity Projection (MIP) 3D images were constructed from the voxels with maximum intensity that fell in the way of parallel rays traced from the viewpoint to the plane of projection. At each pixel the highest data value encountered along the corresponding viewing ray was determined. MRI scans were obtained as part of routine clinical care using hardware and standard data acquisition and processing methods. MRI was obtained using a 1.5T magnet (Signa HDxt, GE Healthcare, Milwaukee, WI). […] Gadopentetate dimeglumine (Magnevist, HealthCare Pharmaceuticals Inc.) was injected though a peripheral angiocatheter at a standard dose (0.2 mL kg^−1 body weight, 40 mL, 2 cc s^−1). For precise localization of tracer uptake to specific neuroanatomical structures, PET brain images were fused to MRI brain images using the Integrated Registration application of the AW Suite software package (GE Healthcare, Milwaukee, Wisconsin, USA).
# [2] = biological target: T1, muscarinic receptor M5 (printed "MS") (Homo sapiens, UniProt P08912); assay: General side effect profile (SEP) II diversity panel; type: binding; conditions: human; 1.0E-5 M; read-out: Percent Inhibition: Muscarinic, MS (h)
# T1 construct: purchased Caliper Life Sciences (now PerkinElmer), NOVASCREEN General SEP II
# [3] = biological target: T2, 70 key receptor, enzyme, and ion channel proteins (Homo sapiens, UniProt P21728); assay: as above; type: binding; conditions: 1.0E-5 M
# T2 construct: purchased Caliper Life Sciences (now PerkinElmer), NOVASCREEN General SEP II
# [4] = biological target: T3, 70 key receptor, enzyme, and ion channel proteins (Homo sapiens, UniProt P29274); assay: as above; type: binding; conditions: 1.0E-5 M
# T3 construct: purchased Caliper Life Sciences (now PerkinElmer), NOVASCREEN General SEP II
# [5] = biological target: 70 key receptor, enzyme, and ion channel proteins (Homo sapiens, UniProt P11229); assay: as above; type: binding
# [6] = biological target: T4, 70 key receptor, enzyme, and ion channel proteins (Homo sapiens, UniProt P08908); assay: as above; type: binding
# T4 construct: purchased Caliper Life Sciences (now PerkinElmer), NOVASCREEN General SEP II
# [7] = biological target: T5, 70 key receptor, enzyme, and ion channel proteins (Homo sapiens, UniProt P21731); assay: as above; type: binding; conditions: 1.0E-5 M
# T5 construct: purchased Caliper Life Sciences (now PerkinElmer), NOVASCREEN General SEP II
# [8] = biological target: T6, 70 key receptor, enzyme, and ion channel proteins (Homo sapiens, UniProt P17612); assay: as above; type: binding; conditions: 1.0E-5 M
# T6 construct: purchased Caliper Life Sciences (now PerkinElmer), NOVASCREEN General SEP II
# [9] = biological target: T7, 70 key receptor, enzyme, and ion channel proteins (Homo sapiens, UniProt P08173); assay: as above; type: binding; conditions: 1.0E-5 M
# T7 construct: purchased Caliper Life Sciences (now PerkinElmer), NOVASCREEN General SEP II
# [10] = biological target: T8, 70 key receptor, enzyme, and ion channel proteins (Homo sapiens, UniProt Q99808); assay: as above; type: binding; conditions: 1.0E-5 M
# T8 construct: purchased Caliper Life Sciences (now PerkinElmer), NOVASCREEN General SEP II
# [11] = biological target: T9, 70 key receptor, enzyme, and ion channel proteins (Homo sapiens, UniProt P07550); assay: as above; type: binding; conditions: 1.0E-5 M
# T9 construct: purchased Caliper Life Sciences (now PerkinElmer), NOVASCREEN General SEP II
# [12] = biological target: T10, 70 key receptor, enzyme, and ion channel proteins (Homo sapiens, UniProt P20309); assay: as above; type: binding
# T10 construct: purchased Caliper Life Sciences (now PerkinElmer), NOVASCREEN General SEP II
# [13] = test system: 70 key receptor, enzyme, and ion channel proteins; assay: as above; type: binding; conditions: 1.0E-5 M
# 70 key receptor, enzyme, and ion channel proteins (Homo sapiens, UniProt P11229), sequence (P11229 whole entry): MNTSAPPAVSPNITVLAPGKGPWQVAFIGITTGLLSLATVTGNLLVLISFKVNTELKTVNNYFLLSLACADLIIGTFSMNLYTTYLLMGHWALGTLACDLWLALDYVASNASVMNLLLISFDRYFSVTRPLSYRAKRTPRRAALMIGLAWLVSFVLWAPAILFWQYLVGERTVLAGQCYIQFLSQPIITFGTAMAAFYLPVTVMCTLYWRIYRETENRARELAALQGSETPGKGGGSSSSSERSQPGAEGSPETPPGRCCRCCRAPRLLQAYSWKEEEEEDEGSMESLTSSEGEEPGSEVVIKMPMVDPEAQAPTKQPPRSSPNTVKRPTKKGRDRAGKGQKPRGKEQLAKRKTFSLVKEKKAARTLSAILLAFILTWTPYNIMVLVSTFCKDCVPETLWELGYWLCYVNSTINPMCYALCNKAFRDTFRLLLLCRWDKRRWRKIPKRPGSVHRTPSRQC
# T2 sequence (P21728 whole entry): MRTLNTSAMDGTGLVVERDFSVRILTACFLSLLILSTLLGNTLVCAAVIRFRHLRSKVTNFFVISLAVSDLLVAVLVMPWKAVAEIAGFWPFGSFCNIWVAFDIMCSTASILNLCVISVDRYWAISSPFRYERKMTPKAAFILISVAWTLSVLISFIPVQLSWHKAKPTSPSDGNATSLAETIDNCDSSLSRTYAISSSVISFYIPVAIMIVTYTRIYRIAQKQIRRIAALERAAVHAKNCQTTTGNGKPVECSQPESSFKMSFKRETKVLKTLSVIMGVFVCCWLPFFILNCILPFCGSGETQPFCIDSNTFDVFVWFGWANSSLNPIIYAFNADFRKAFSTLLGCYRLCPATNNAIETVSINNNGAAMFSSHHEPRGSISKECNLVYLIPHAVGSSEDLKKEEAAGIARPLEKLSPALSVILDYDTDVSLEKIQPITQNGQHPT
# T9 sequence (P07550 whole entry): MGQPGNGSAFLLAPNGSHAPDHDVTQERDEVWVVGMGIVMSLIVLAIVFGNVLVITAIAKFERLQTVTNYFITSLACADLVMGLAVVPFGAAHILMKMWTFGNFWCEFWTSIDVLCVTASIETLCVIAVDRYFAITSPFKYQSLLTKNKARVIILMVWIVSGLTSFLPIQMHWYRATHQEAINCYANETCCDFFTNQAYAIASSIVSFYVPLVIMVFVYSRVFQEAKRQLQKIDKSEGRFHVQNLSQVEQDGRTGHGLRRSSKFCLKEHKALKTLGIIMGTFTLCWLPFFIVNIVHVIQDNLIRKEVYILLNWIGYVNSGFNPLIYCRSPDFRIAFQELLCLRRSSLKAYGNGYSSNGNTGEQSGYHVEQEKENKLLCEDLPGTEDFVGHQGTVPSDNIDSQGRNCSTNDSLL
# T5 sequence (P21731 whole entry): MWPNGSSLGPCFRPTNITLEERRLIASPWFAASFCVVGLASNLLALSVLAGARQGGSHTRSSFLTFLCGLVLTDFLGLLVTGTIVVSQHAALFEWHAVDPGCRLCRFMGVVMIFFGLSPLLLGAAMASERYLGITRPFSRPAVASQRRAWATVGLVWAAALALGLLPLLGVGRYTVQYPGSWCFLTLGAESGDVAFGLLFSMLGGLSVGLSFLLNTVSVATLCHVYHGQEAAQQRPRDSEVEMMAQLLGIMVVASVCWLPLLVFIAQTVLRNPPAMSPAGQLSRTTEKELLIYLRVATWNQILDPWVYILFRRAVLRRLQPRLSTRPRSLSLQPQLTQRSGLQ
# T7 sequence (P08173 whole entry): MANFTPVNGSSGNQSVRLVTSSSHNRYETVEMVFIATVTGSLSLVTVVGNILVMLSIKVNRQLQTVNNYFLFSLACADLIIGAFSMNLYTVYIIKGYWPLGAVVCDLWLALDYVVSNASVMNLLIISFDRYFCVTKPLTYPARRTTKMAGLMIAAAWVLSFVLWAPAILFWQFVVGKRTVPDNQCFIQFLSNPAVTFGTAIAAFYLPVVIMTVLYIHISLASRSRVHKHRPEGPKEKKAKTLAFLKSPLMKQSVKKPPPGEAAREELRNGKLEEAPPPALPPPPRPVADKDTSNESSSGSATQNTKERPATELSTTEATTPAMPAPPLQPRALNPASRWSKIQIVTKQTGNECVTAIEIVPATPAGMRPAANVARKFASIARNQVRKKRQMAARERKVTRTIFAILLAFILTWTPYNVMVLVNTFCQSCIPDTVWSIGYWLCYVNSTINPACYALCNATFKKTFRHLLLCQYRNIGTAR
# T10 sequence (P20309 whole entry): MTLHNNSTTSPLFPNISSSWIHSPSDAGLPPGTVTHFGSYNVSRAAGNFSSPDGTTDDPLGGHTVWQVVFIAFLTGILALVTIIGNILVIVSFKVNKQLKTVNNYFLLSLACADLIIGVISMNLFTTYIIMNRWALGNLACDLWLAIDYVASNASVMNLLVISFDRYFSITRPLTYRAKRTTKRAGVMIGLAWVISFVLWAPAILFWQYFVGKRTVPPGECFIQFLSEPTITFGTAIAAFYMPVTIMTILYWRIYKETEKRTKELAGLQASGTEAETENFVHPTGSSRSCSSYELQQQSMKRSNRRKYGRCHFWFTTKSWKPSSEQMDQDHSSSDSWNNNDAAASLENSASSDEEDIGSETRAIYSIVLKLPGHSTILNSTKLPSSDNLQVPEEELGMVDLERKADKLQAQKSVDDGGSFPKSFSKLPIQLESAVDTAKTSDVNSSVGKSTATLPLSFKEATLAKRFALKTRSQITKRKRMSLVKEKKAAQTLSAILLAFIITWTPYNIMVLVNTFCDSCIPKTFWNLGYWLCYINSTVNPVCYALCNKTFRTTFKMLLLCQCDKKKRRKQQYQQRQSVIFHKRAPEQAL
# T1 sequence (P08912 whole entry): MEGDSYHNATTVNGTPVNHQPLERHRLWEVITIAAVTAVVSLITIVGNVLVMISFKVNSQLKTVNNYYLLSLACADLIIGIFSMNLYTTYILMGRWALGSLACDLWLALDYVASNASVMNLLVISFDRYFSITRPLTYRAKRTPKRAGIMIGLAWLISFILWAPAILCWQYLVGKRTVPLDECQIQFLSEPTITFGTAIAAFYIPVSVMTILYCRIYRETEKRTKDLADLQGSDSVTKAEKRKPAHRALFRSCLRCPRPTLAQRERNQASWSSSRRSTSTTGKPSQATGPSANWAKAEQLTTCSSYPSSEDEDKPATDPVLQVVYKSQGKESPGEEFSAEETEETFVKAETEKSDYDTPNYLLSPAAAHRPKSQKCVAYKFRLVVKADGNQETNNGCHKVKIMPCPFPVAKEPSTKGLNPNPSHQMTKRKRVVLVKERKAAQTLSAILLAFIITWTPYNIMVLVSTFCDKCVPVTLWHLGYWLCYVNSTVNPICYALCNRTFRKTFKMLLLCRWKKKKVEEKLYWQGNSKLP
# T8 sequence (Q99808 whole entry): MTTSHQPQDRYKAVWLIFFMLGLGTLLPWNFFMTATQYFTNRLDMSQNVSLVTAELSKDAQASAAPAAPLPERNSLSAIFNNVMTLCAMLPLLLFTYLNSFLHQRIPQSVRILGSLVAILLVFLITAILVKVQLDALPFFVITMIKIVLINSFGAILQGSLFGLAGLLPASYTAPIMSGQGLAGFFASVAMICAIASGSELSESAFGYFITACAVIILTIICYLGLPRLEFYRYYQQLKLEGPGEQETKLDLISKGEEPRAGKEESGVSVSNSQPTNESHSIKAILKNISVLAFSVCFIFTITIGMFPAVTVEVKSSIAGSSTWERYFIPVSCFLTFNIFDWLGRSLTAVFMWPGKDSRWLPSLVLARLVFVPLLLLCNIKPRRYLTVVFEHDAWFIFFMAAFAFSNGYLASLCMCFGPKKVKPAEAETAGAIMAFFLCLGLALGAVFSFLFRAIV
# T4 sequence (P08908 whole entry): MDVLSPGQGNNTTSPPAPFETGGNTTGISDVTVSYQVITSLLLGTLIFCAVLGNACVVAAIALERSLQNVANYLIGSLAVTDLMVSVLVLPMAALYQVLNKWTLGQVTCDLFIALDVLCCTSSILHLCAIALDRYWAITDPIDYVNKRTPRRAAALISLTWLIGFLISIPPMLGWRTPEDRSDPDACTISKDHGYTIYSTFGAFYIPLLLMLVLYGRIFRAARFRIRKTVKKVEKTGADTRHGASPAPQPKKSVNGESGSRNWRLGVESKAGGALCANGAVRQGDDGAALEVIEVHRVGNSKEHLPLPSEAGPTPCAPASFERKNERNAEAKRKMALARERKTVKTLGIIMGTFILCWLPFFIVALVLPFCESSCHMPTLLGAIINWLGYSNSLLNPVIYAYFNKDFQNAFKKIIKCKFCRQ
# T3 sequence (P29274 whole entry): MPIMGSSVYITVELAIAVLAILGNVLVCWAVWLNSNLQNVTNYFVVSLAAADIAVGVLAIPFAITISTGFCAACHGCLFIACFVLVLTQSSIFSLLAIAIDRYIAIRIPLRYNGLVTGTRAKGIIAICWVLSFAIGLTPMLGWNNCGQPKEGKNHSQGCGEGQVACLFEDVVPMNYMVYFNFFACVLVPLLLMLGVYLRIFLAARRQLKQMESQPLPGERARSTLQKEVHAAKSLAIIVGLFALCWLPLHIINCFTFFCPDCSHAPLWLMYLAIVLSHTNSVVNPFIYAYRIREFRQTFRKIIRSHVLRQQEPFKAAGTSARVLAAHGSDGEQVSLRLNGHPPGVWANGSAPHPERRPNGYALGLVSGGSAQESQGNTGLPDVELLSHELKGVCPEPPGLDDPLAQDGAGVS
compound,measurement,setting,value
CC(C)(C)CNCCn1c(Sc2cc3c(cc2I)OCO3)nc2c(N)ncnc21 [Compound 85],"SUV average, Brain",[1]; 0.5 h,1.12 SUV
same,"SUV average, Lung",[1]; 0.5 h,0.59 SUV
same,"SUV average, Muscle",[1]; 0.5 h,0.87 SUV
same,"SUV average, Brain",[1]; 3 h,0.49 SUV
same,"SUV average, Lung",[1]; 3 h,0.34 SUV
same,"SUV average, Muscle",[1]; 3 h,0.37 SUV
same,"SUV average, Brain",[1]; 24 h,0.04 SUV
same,"SUV average, Lung",[1]; 24 h,0.1 SUV
same,"SUV average, Muscle",[1]; 24 h,0.1 SUV
same,inhibition at 10 µM,[2],69.9%
same,"Percent Inhibition: Dopamine, Dl (h)",[3],8.03%
same,"Percent Inhibition: Adenosine, A2A (h)",[4],0.79%
same,"Percent Inhibition: Muscarinic, Ml (hr)",[5],26.84%
same,"Percent Inhibition: Serotonin, 5HT1A (h)",[6],-16.30%
same,Percent Inhibition: Thromboxane AZ (h),[7],20.84%
same,"Percent Inhibition: Kinase, Protein, PKA (h)",[8],0.09%
same,"Percent Inhibition: Muscarinic, M4 (h)",[9],27.60%
same,Percent Inhibition: Adenosine Transporter (h),[10],-3.54%
same,"Percent Inhibition: Adrenergic, Beta 2 (h)",[11],3.05%
same,"Percent Inhibition: Muscarinic, M3 (h)",[12],50.76%
same,"Percent Inhibition: Adenosine, Al",[13],14.00%
same,"Percent Inhibition: Adrenergic, Alpha 1B",[13],27.43%
same,"Percent Inhibition: Adrenergic, Alpha 2A (h)",[13],-1.92%
same,"Percent Inhibition: Adrenergic, Alpha 2B",[13],10.67%
same,"Percent Inhibition: Adrenergic, Alpha 2C (h)",[13],15.07%
same,"Percent Inhibition: Adrenergic, Alpha lA",[13],12.17%
same,"Percent Inhibition: Angiotensin II, ATl (h)",[13],0.36%
same,"Percent Inhibition: Bradykinin, BK2",[13],10.14%
same,"Percent Inhibition: Calcium Channel, Type N",[13],-11.15%
same,Percent Inhibition: Dopamine Transporter,[13],-12.87%
same,"Percent Inhibition: Dopamine, D2s (h)",[13],20.57%
same,"Percent Inhibition: Dopamine, D3",[13],-6.23%
same,"Percent Inhibition: Esterase, Acetylcholine",[13],6.63%
same,"Percent Inhibition: GABA A, Agonist Site",[13],33.91%
same,"Percent Inhibition: GABA A, BDZ, alpha 1 site",[13],18.61%
same,"Percent Inhibition: GABA, Chloride, TBOB Site",[13],-28.46%
same,Percent Inhibition: GABA-B,[13],18.61%
same,"Percent Inhibition: Glutamate, AMPA Site (Ionotropic)",[13],8.62%
same,"Percent Inhibition: Glutamate, Kainate Site (Ionotropic)",[13],-7.63%
same,"Percent Inhibition: Glutamate, MK-801 Site (Ionotropic)",[13],-0.50%
same,"Percent Inhibition: Glutamate, NMDA Agonist Site (Ionotropic)",[13],23.69%
same,"Percent Inhibition: Glutamate, NMDA, Phencyclidine Site (Ionotropic)",[13],6.26%
same,"Percent Inhibition: Glutamate,NMDA,Glycine (Stry-insens Site)",[13],-0.97%
same,"Percent Inhibition: Glycine, Strychnine-sensitive",[13],-19.46%
same,"Percent Inhibition: Histamine, H2",[13],40.98%
same,"Percent Inhibition: Histamine, H3",[13],22.25%
same,"Percent Inhibition: Histamine, Hl",[13],5.94%
same,"Percent Inhibition: Leukotriene, LTB4 (BLT)",[13],22.06%
same,"Percent Inhibition: Leukotriene, LTD4 (CysLTl)",[13],28.77%
same,"Percent Inhibition: Neurokinin, NKl",[13],20.40%
same,"Percent Inhibition: Nicotinic, Neuronal (a-BnTx insensitive)",[13],-17.51%
same,"Percent Inhibition: Nitric Oxide, NOS (Neuronal-Binding)",[13],-1.73%
same,Percent Inhibition: Norepinephrine Transporter,[13],5.73%
same,"Percent Inhibition: Phosphodiesterase, PDE4A1A (h)",[13],14.00%
same,"Percent Inhibition: Potassium Channel, ATP-Sensitive",[13],-1.01%
same,"Percent Inhibition: Potassium Channel, Ca2+ Act., VI",[13],18.66%
same,Percent Inhibition: Serotonin Transporter,[13],5.96%
same,"Percent Inhibition: Serotonin, 5HT1D",[13],5.13%
same,"Percent Inhibition: Serotonin, 5HT2A",[13],8.50%
same,"Percent Inhibition: Serotonin, 5HT2C",[13],12.77%
same,"Percent Inhibition: Serotonin, 5HT3",[13],6.61%
same,"Percent Inhibition: Serotonin, 5HT4",[13],36.08%
same,Percent Inhibition: Sigma 2,[13],-0.71%
same,"Percent Inhibition: Sodium, Site 2",[13],14.53%
